From PubChem BioAssay (NCI)
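Test compounds were applied to cells in 96-well plates for 48 hours at 5 doses. GI50 marks 50% less growth. Definition used: TGI = concentration required for complete inhibition of growth.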

Experiments:
Test in all cases: NCI anticancer screen, dose series, 48 h
T-47D breast = test system: T-47D breast
SNB-19 CNS = test system: SNB-19 CNS
HOP-62 NSCLC = test system: HOP-62 NSCLC
M14 melanoma = test system: M14 melanoma
SR leukemia = test system: SR leukemia
ACHN renal = test system: ACHN renal
HCC-2998 colon = test system: HCC-2998 colon
SK-OV-3 ovarian = test system: SK-OV-3 ovarian
SF-539 CNS = test system: SF-539 CNS
NCI-H460 lung = test system: NCI-H460 lung

SMILES	GI50 (T-47D breast)	TGI (T-47D breast)	GI50 (SNB-19 CNS)	TGI (SNB-19 CNS)	GI50 (HOP-62 NSCLC)	TGI (HOP-62 NSCLC)	GI50 (M14 melanoma)	TGI (M14 melanoma)	GI50 (SR leukemia)	TGI (SR leukemia)	GI50 (ACHN renal)	TGI (ACHN renal)	GI50 (HCC-2998 colon)	TGI (HCC-2998 colon)	GI50 (SK-OV-3 ovarian)	TGI (SK-OV-3 ovarian)	GI50 (SF-539 CNS)	TGI (SF-539 CNS)	GI50 (NCI-H460 lung)	TGI (NCI-H460 lung)
Cc1ccc(S(=O)(=O)c2ccsc2N)cc1	> 100 µM	> 100 µM	> 100 µM	> 100 µM	> 100 µM	> 100 µM	> 100 µM	> 100 µM	> 100 µM	> 100 µM	> 100 µM	> 100 µM	> 100 µM	> 100 µM	> 100 µM	> 100 µM	> 100 µM	> 100 µM	> 100 µM	> 100 µM
CC(C)=CCC/C(C)=C/[C@H]1OC(=O)CC12C[C@H](O)C=CC2=O (stereo partly specified)	0.194 µM	0.692 µM	1.36 µM	2.64 µM	0.856 µM	2.43 µM	0.32 µM	0.833 µM	0.383 µM	> 100 µM	–	–	0.221 µM	0.448 µM	1.44 µM	3.19 µM	0.421 µM	1.26 µM	0.692 µM	2.21 µM
CC1(C)N=C(N)N=C(N)N1c1ccc(OCCCCNC(=O)c2ccc(S(=O)(=O)F)cc2)c(Cl)c1	> 100 µM	> 100 µM	13.6 µM	> 100 µM	68.3 µM	> 100 µM	8.89 µM	> 100 µM	4.95 µM	> 100 µM	41.6 µM	> 100 µM	35 µM	> 100 µM	> 100 µM	> 100 µM	7.11 µM	> 100 µM	2.1 µM	> 100 µM
O=C(Nc1cccc([N+](=O)[O-])c1)c1cc2ccccc2cc1O	2.47 µM	7.88 µM	2.93 µM	> 100 µM	1.19 µM	3.72 µM	1.58 µM	6.68 µM	1.46 µM	8.17 µM	2.03 µM	7.79 µM	2.16 µM	6.11 µM	1.84 µM	6.07 µM	1.57 µM	8.84 µM	1.87 µM	> 100 µM
N#C/C(=C\c1cccnc1)c1nc2ccccc2o1	> 100 µM	> 100 µM	> 100 µM	> 100 µM	> 100 µM	> 100 µM	> 100 µM	> 100 µM	> 100 µM	> 100 µM	> 100 µM	> 100 µM	> 100 µM	> 100 µM	> 100 µM	> 100 µM	> 100 µM	> 100 µM	> 100 µM	> 100 µM
COc1ccc(/C=C/c2cnc3ccccc3n2)cc1OC	–	> 100 µM	–	–	–	> 100 µM	–	> 100 µM	–	> 100 µM	–	> 100 µM	–	–	–	> 100 µM	–	> 100 µM	–	> 100 µM
O=c1[nH]cnc2nc(-c3ccc(N(CCCl)CCCl)cc3)[nH]c12	2.85 µM	> 100 µM	19.3 µM	> 100 µM	10.7 µM	63.8 µM	4.97 µM	> 100 µM	> 100 µM	> 100 µM	2.58 µM	33.5 µM	4.76 µM	> 100 µM	5.17 µM	42.8 µM	15.1 µM	63 µM	4.51 µM	> 100 µM
CN(C)c1ccc(N=C(C#N)c2nc(N)nc(N3CCN(c4ccccc4)CC3)n2)cc1	> 50 µM	> 50 µM	> 50 µM	> 50 µM	> 28.6 µM	> 50 µM	> 50 µM	> 50 µM	> 50 µM	> 50 µM	22.3 µM	> 50 µM	26.6 µM	> 50 µM	16.6 µM	> 35.4 µM	18.4 µM	> 50 µM	14.7 µM	> 37 µM
O=c1oc2cc(OS(=O)(=O)c3ccccc3)ccc2c2c1CCCCC2	3.79 µM	> 100 µM	> 100 µM	> 100 µM	> 100 µM	> 100 µM	8.8 µM	> 100 µM	3.01 µM	> 100 µM	> 100 µM	> 100 µM	32.1 µM	> 100 µM	> 100 µM	> 100 µM	6.68 µM	> 100 µM	4.27 µM	> 100 µM
O=C(O)c1ccc2cccnc2c1O	2.18 µM	9.9 µM	1.48 µM	> 100 µM	1.37 µM	41.6 µM	1.53 µM	26.6 µM	2.23 µM	> 100 µM	1.7 µM	11.3 µM	2.32 µM	37.5 µM	1.7 µM	4.89 µM	1.19 µM	12.8 µM	0.551 µM	11.1 µM
CC(=O)Nc1cc2cc(NS(=O)(=O)c3cc(C(F)(F)F)cc(C(F)(F)F)c3)ccc2oc1=O	–	> 100 µM	–	> 100 µM	–	> 100 µM	–	> 100 µM	–	> 100 µM	–	> 100 µM	–	> 100 µM	–	–	–	96.6 µM	–	> 100 µM
Cc1[nH]n(-c2ccccc2)c(=O)c1C(=O)c1ccccc1	> 25 µM	> 25 µM	> 15.7 µM	> 25 µM	> 25 µM	> 25 µM	> 25 µM	> 25 µM	> 21 µM	> 25 µM	> 25 µM	> 25 µM	> 25 µM	> 25 µM	> 25 µM	> 25 µM	> 25 µM	> 25 µM	> 19.5 µM	> 25 µM
N#Cc1ccc2c(c1)C(=O)c1c-2n(CCCN=[N+]=[N-])c(=O)c2cc([N+](=O)[O-])ccc12	8.63 µM	> 50 µM	33 µM	> 50 µM	15 µM	> 50 µM	29.9 µM	> 50 µM	0.373 µM	4.82 µM	5.28 µM	> 50 µM	> 50 µM	> 50 µM	> 50 µM	> 50 µM	> 50 µM	> 50 µM	1.11 µM	> 50 µM
O[C@H](CN1CC1)[C@@H](O)CN1CC1	7.13 µM	66.6 µM	6.58 µM	> 100 µM	3.41 µM	47.2 µM	3.77 µM	22.3 µM	0.452 µM	> 100 µM	0.499 µM	14.7 µM	13.8 µM	51.3 µM	4.91 µM	29.9 µM	2.58 µM	15.5 µM	0.496 µM	22.9 µM
Cc1cc(Cl)ccc1NC(=O)NC(C)(C)COC(=O)Nc1cccc(Cl)c1	5.55 µM	> 100 µM	5.57 µM	> 100 µM	14.1 µM	50.5 µM	8.38 µM	> 100 µM	8.31 µM	> 100 µM	5.6 µM	> 100 µM	11.3 µM	> 100 µM	22.5 µM	96 µM	9.4 µM	> 100 µM	4.86 µM	36.7 µM
COc1cccc2ccc3c(c12)C(=O)OC31CCc2c(C)cccc21 (stereo unspecified)	–	> 100 µM	–	> 46.4 µM	–	> 46.4 µM	–	> 46.4 µM	–	18.4 µM	–	40.5 µM	–	> 46.4 µM	–	> 46.4 µM	–	> 100 µM	–	> 31.6 µM
S=c1[nH]nc(SCc2ccccc2Cl)c2[nH]cnc12	–	> 100 µM	–	> 100 µM	–	> 100 µM	–	> 100 µM	–	> 100 µM	–	> 100 µM	–	–	–	> 100 µM	–	> 100 µM	–	> 100 µM
CC(C)N(Cc1ccccc1)S(=O)(=O)c1n[nH]c(C(C)(C)C)n1	–	> 100 µM	–	> 100 µM	–	> 100 µM	–	> 100 µM	–	> 100 µM	–	> 100 µM	–	–	–	> 100 µM	–	> 100 µM	–	> 100 µM
N=C1C(c2nc(-c3ccc(Br)cc3)cs2)=C(O)CN1CC1CCCO1 (stereo unspecified)	> 100 µM	> 100 µM	> 100 µM	> 100 µM	> 100 µM	> 100 µM	–	–	> 100 µM	> 100 µM	> 100 µM	> 100 µM	> 100 µM	> 100 µM	> 100 µM	> 100 µM	> 100 µM	> 100 µM	–	–
CC(C)(O)CCC(O)C(C)(O)C1CCC2(O)C3=CC(=O)C4(O)CC(O)C(O)CC4(C)C3CCC12C (stereo unspecified) (tested in a mixture with another compound)	–	> 100 µM	–	> 100 µM	–	> 100 µM	–	> 100 µM	–	> 100 µM	–	> 100 µM	–	–	–	> 100 µM	–	> 100 µM	–	> 100 µM
CCC(=O)OC1=CN2C(=NC(c3ccc(N)cc3)=CC2c2cc(OC)c(OC)c(OC)c2)S1 (stereo unspecified)	4.01 µM	30.8 µM	3.59 µM	16.4 µM	4.79 µM	15.1 µM	4.18 µM	17.6 µM	–	–	3.35 µM	18.2 µM	4.47 µM	15.7 µM	3.45 µM	13 µM	2.12 µM	6.01 µM	2.61 µM	8.52 µM
